Measured values reported in the supplement of paper PMC11061612.

Experiments:
[1] = tested on: MHH-CALL-2 (B-Lymphoblastic Leukemia); assay: combination Emax (second highest fraction inhibited in the dose matrix, 72 h); higher = more inhibition; extreme values may be limits of the assay
Method in brief: (§1)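 Bliss excess equals the observed combination effect minus the expected value EA + EB − EA·EB, where EA and EB are the effects of each agent alone. Combination Emax is the second-highest inhibition within the matrix. Inhibition was scaled from CellTiter-Glo 2.0 luminescence, with 0 set by vehicle wells and 1 by blank wells, after 72 hours of two-drug dosing of cells plated in 1536-well plates.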

[2] = tested on: BE2-M17 (Neuroblastoma); assay: Bliss excess, mean over the matrix (fraction); higher = more synergy
Method in brief: as §1

[3] = tested on: HeLa (Cervical Carcinoma); assay: as above
Method in brief: as §1

[4] = tested on: KMRC-20 (Kidney Carcinoma); assay: as above
Method in brief: as §1

[5] = tested on: OV-56 (Ovarian Carcinoma); assay: as above
Method in brief: as §1

[6] = tested on: NCI-H209 (Small Cell Lung Carcinoma); assay: as above
Method in brief: as §1

[7] = tested on: KYAE-1 (Esophageal Adenocarcinoma); assay: as above
Method in brief: as §1

[8] = tested on: NCI-H2722 (Mesothelioma); assay: as above
Method in brief: as §1

[9] = tested on: MHH-CALL-2 (B-Lymphoblastic Leukemia); assay: as above
Method in brief: as §1

[10] = tested on: SW1573 (Lung Adenocarcinoma); assay: as above
Method in brief: as §1

[11] = tested on: NCI-H720 (Other Solid Carcinomas); assay: combination Emax (second highest fraction inhibited in the dose matrix, 72 h); higher = more inhibition; extreme values may be limits of the assay
Method in brief: as §1

[12] = tested on: NCI-H720 (Other Solid Carcinomas); assay: Bliss excess, mean over the matrix (fraction); higher = more synergy
Method in brief: as §1

| Structure (SMILES) | combination Emax [1] | Bliss excess [2] | Bliss excess [3] | Bliss excess [4] | Bliss excess [5] | Bliss excess [6] | Bliss excess [7] | Bliss excess [8] | Bliss excess [9] | Bliss excess [10] | combination Emax [11] | Bliss excess [12] |
| --- | --- | --- | --- | --- | --- | --- | --- | --- | --- | --- | --- | --- |
| C[C@@H](c1ccc2nccn2c1)n1nnc2ncc(-c3cnn(C)c3)nc21 [Savolitinib] + Cc1c2c(nn1C)CSCc1cc(n(C)n1)CSc1cc(c3ccccc3c1)OCCCc1c(C(=O)O)n(C)c3c-2c(Cl)ccc13 [AZD5991] (first compound max 1 µM, 7x7, partner max 1 µM) | 0.976 | -0.0285 | -0.0696 | -0.0733 | -0.0547 | -0.0187 | 0.0163 | -0.0088 | -0.0343 | -0.0475 |  |  |
| CN(CCO)CC[C@H](CSc1ccccc1)Nc1ccc(S(=O)(=O)NC(=O)c2ccc(N3CCC([C@@H](O)c4ccccc4-c4ccc(Cl)cc4)CC3)cc2)cc1S(=O)(=O)C(F)(F)F [AZD4320] + Cc1cc2ncnn2cc1Nc1ncc2c(n1)n(C1CCOCC1)c(=O)n2C [AZD7648] (first compound max 1 µM, 7x7, partner max 10 µM) | 0.516 | -0.0059 | -0.0345 | -0.0393 | -0.0109 | 0.0477 | -0.0461 | -0.0695 | 0.0839 | -0.0592 |  |  |
| Cc1cc2ncnn2cc1Nc1ncc2c(n1)n(C1CCOCC1)c(=O)n2C [AZD7648] + C=CCn1c(=O)c2cnc(Nc3ccc(N4CCN(C)CC4)cc3)nc2n1-c1cccc(C(C)(C)O)n1 [AZD1775] (first compound max 10 µM, partner max 1 µM) |  | -0.0837 | -0.0542 | -0.0164 | 0.0602 | -0.0177 | -0.048 | 0.0033 |  | -0.0452 | 0.601 | -0.0899 |
| COc1cc2ncnc(Nc3ccc(F)c(Cl)c3)c2cc1OCCCN1CCOCC1 [Gefitinib] + CC(C)n1c(=O)n(C)c2cnc3cc(F)c(-c4ccc(OCCCN5CCCCC5)nc4)cc3c21 [AZD1390] (first compound max 10 µM, 7x7, partner max 0.3 µM) | 0.0382 | -0.049 | -0.0578 | -0.056 | -0.0543 | -0.0831 | -0.0421 | -0.0662 | -0.0419 | -0.0726 |  |  |
| C[C@@H](c1ccc2nccn2c1)n1nnc2ncc(-c3cnn(C)c3)nc21 [Savolitinib] + CN(CC[C@H](CSC1=CC=CC=C1)NC2=C(C=C(C=C2)S(=O)(=O)NC(=O)C3=CC=C(C=C3)N4CCC(CC4)[C@H](C5=CC=CC=C5C6=CC=C(C=C6)Cl)O)S(=O)(=O)C(F)(F)F)CCO [AZD4320] (first compound max 1 µM, 7x7, partner max 1 µM) | 0.454 | -0.0337 | -0.0391 | -0.0048 | -0.0078 | -0.0172 |  | -0.0433 | -0.0252 | -0.0657 |  |  |
| Cc1cc2ncnn2cc1Nc1ncc2c(n1)n(C1CCOCC1)c(=O)n2C [AZD7648] + C[C@@H]1COCCN1C2=NC(=NC(=C2)C3(CC3)[S@](=N)(=O)C)C4=C5C=CNC5=NC=C4 [AZD6738] (first compound max 10 µM, 7x7, partner max 10 µM) |  | -0.0073 | 0.0258 | -0.0207 | 0.0044 | -0.0155 | 0.0399 | -0.0163 |  | 0.0293 | 0.722 | -0.0692 |
| N#Cc1cnc(Nc2cc(NC[C@H]3CNCCO3)c(C(F)(F)F)cn2)cn1 [SRA737] + C=CCn1c(=O)c2cnc(Nc3ccc(N4CCN(C)CC4)cc3)nc2n1-c1cccc(C(C)(C)O)n1 [AZD1775] (first compound max 10 µM, partner max 1 µM) |  |  |  |  |  |  | 0.0021 |  |  |  |  |  |
| N#Cc1cnc(Nc2cc(NC[C@H]3CNCCO3)c(C(F)(F)F)cn2)cn1 [SRA737] + O=c1[nH]cc(F)c(=O)[nH]1 [5-Fluorouracil] (first compound max 10 µM, 7x7, partner max 20 µM) |  |  |  |  |  |  | 0.0202 |  |  |  |  |  |
| CN(CCO)CC[C@H](CSc1ccccc1)Nc1ccc(S(=O)(=O)NC(=O)c2ccc(N3CCC([C@@H](O)c4ccccc4-c4ccc(Cl)cc4)CC3)cc2)cc1S(=O)(=O)C(F)(F)F [AZD4320] + CC(=O)O[C@H]1C(=O)[C@@]2(C)[C@H]([C@H](OC(=O)c3ccccc3)[C@]3(O)C[C@H](OC(=O)[C@H](O)[C@@H](NC(=O)c4ccccc4)c4ccccc4)C(C)=C1C3(C)C)[C@]1(OC(C)=O)CO[C@@H]1C[C@@H]2O [Paclitaxel] (first compound max 1 µM, 7x7, partner max 3 µM) |  |  |  |  |  |  | 0.0811 |  |  |  |  |  |
| N#Cc1cnc(Nc2cc(NC[C@H]3CNCCO3)c(C(F)(F)F)cn2)cn1 [SRA737] + Nc1ccn([C@@H]2O[C@H](CO)[C@@H](O)C2(F)F)c(=O)n1 [Gemcitabine] (first compound max 10 µM, 7x7, partner max 0.3 µM) |  |  |  |  |  |  | 0.0075 |  |  |  |  |  |
| CN(CCO)CC[C@H](CSc1ccccc1)Nc1ccc(S(=O)(=O)NC(=O)c2ccc(N3CCC([C@@H](O)c4ccccc4-c4ccc(Cl)cc4)CC3)cc2)cc1S(=O)(=O)C(F)(F)F [AZD4320] + C[C@@H]1COCCN1C2=NC(=NC(=C2)C3(CC3)[S@](=N)(=O)C)C4=C5C=CNC5=NC=C4 [AZD6738] (first compound max 1 µM, 7x7, partner max 10 µM) | 0.921 | -0.0458 | -0.0319 | -0.0289 | -0.005 | 0.0545 | 0.0036 | -0.0307 | 0.0042 | -0.0216 |  |  |
| COc1nnc2ccc(N3CCC(c4ccc(OCCN5CCN(C)C(=O)[C@H]5C)cc4)CC3)nn12 [AZD5153] + CN(CC[C@H](CSC1=CC=CC=C1)NC2=C(C=C(C=C2)S(=O)(=O)NC(=O)C3=CC=C(C=C3)N4CCC(CC4)[C@H](C5=CC=CC=C5C6=CC=C(C=C6)Cl)O)S(=O)(=O)C(F)(F)F)CCO [AZD4320] (first compound max 1 µM, 7x7, partner max 1 µM) | 0.688 | 0.0682 | -0.033 | 0.0384 | 0.015 | 0.01 |  | 0.0387 | 0.0512 | 0.089 |  |  |
| Cc1nc(Nc2ncc(C(=O)Nc3c(C)cccc3Cl)s2)cc(N2CCN(CCO)CC2)n1 [Dasatinib] + CC(=O)Nc1cccc(-n2c(=O)n(C3CC3)c(=O)c3c(Nc4ccc(I)cc4F)n(C)c(=O)c(C)c32)c1 [Trametinib] (first compound max 2 µM, 7x7, partner max 1 µM) | 0.128 | -0.0087 | -0.0672 | -0.0518 | 0.0114 | -0.039 | -0.0114 | -0.0321 | -0.0223 | -0.0715 |  |  |
| C[C@@H](c1ccc2nccn2c1)n1nnc2ncc(-c3cnn(C)c3)nc21 [Savolitinib] + CC1(C)CCC(CN2CCN(c3ccc(C(=O)NS(=O)(=O)c4ccc(NCC5CCOCC5)c([N+](=O)[O-])c4)c(Oc4cnc5[nH]ccc5c4)c3)CC2)=C(c2ccc(Cl)cc2)C1 [Venetoclax] (first compound max 1 µM, 7x7, partner max 1 µM) | 0.0992 | -0.0656 | -0.0374 | -0.0524 | -0.0419 | -0.0361 | -0.014 | -0.0617 | -0.0471 | -0.0736 |  |  |
| CN(CCO)CC[C@H](CSc1ccccc1)Nc1ccc(S(=O)(=O)NC(=O)c2ccc(N3CCC([C@@H](O)c4ccccc4-c4ccc(Cl)cc4)CC3)cc2)cc1S(=O)(=O)C(F)(F)F [AZD4320] + CCN(CCO)CCCOc1ccc2c(Nc3cc(CC(=O)Nc4cccc(F)c4)[nH]n3)ncnc2c1 [AZD2811] (first compound max 1 µM, 7x7, partner max 1 µM) | 0.538 | 0.12 | -0.0242 | 0.0024 | -0.0293 | 0.184 | -0.0149 | -0.024 | 0.138 | 0.004 |  |  |
| CN(CCO)CC[C@H](CSc1ccccc1)Nc1ccc(S(=O)(=O)NC(=O)c2ccc(N3CCC([C@@H](O)c4ccccc4-c4ccc(Cl)cc4)CC3)cc2)cc1S(=O)(=O)C(F)(F)F [AZD4320] + Nc1ccn([C@@H]2O[C@H](CO)[C@@H](O)C2(F)F)c(=O)n1 [Gemcitabine] (first compound max 1 µM, 7x7, partner max 0.3 µM) |  |  |  |  |  |  | 0.0074 |  |  |  |  |  |
| Cc1cc2ncnn2cc1Nc1ncc2c(n1)n(C1CCOCC1)c(=O)n2C [AZD7648] + COc1cc([C@@H]2c3cc4c(cc3[C@@H](O[C@@H]3O[C@@H]5CO[C@@H](C)O[C@H]5[C@H](O)[C@H]3O)[C@H]3COC(=O)[C@H]23)OCO4)cc(OC)c1O [Etoposide] (first compound max 10 µM, 7x7, partner max 10 µM) |  |  |  |  |  |  | 0.0032 |  |  |  |  |  |
